Values after ≈ are worked out from the molar mass of the structure shown.

Data on 15 compounds can be found in PMC6070903 (Viruses, 2018).

The test system of one data set is HSV-1 strain KOS. Put plainly: Anti-HSV-1 plaque reduction assay in Vero cells. To be noted: for IC50: Human alphaherpesvirus 1, HSV-1, plaque reduction, 72 h, Vero cells; for Selectivity Index CC50/IC50: HSV-1, Vero CC50 / IC50. Format: cell-based, Herpes simplex virus.
The test system of data set [1] is HSV-2 (clinical isolates, acyclovir-sensitive). Briefly: Anti-HSV-2 titer reduction assay in Vero cells. It counts as cell-based, Herpes simplex virus. The following applies: for EC50: Human alphaherpesvirus 2, HSV-2, titer reduction, 48 h, Vero cells; for Selectivity Index CC50/EC50: HSV-2, Vero CC50 / EC50.
A further data set is described as follows: in vitro. To be noted: African green monkey.
The test system of the next data set is S. aureus ATCC 29213. Put plainly: Broth microdilution MIC. It counts as cell-based. To be noted: Staphylococcus aureus, ATCC29213, 24 h, 35 ± 2 °C. For orientation: Broth dilution looks for growth in wells or tubes with falling amounts of substance.
Another data set concerns B. cereus ATCC 11778. Briefly: Broth microdilution MIC. Format: cell-based. The following applies: Bacillus cereus, ATCC11778, 24 h, 35 ± 2 °C.
The test system of another data set is E. coli ATCC 25922. Put plainly: Broth microdilution MIC. Format: cell-based. The following applies: Escherichia coli, ATCC25922, 24 h, 35 ± 2 °C.
The subject of a further data set is P. aeruginosa ATCC 27853. Put plainly: Broth microdilution MIC. It counts as cell-based. The following applies: Pseudomonas aeruginosa, ATCC27853, 24 h, 35 ± 2 °C.
The test system of another data set is C. albicans ATCC 10231. Put plainly: Broth microdilution MIC. Format: cell-based. To be noted: Candida albicans, ATCC10231, 48 h, 25 ± 2 °C.
Data set [2] deals with THP-1 cells. Briefly: Pyocyanin-triggered ROS production in THP-1 cells, DCFH-DA. Format: cell-based, human. To be noted: 5 μM, pyocyanin 100 μM, THP-1 monocytes.
Data set [3] has as its system Gram-positive bacteria S. aureus and B. cereus. Put plainly: Broth microdilution MIC, summary for both Gram-positive strains. Format: cell-based. To be noted: S. aureus and B. cereus together.
Data set [4] deals with THP-1 cells. Put plainly: Cell viability of THP-1 cells, WST-1 assay. To be noted: Homo sapiens, WST-1, 24 h, 0.25 to 20 μM, read-out: IC50 for the THP-1 cell line (viability). Format: cell-based. (Tetrazolium assays rely on reduction of a dye to a coloured formazan, in cell work by metabolically active cells.)
In data set [5] the test system is HL-60 (promyelocytic leukemia) cells. More on the design: method as in earlier work. To be noted: read-out: IC50 against HL-60 cells; cited from earlier work.
Another data set relates to NF-κB/AP-1. Put plainly: NF-κB/AP-1 activity, SEAP reporter in LPS-stimulated THP-1-XBlue-MD2-CD14 cells. Format: cell-based, human. The following applies: 5 μM, LPS 1 μg/mL, 24 h, vs vehicle.
The next data set relates to IL-1β. Put plainly: LPS-stimulated IL-1β secretion in PMA-differentiated THP-1 macrophages, ELISA. Format: cell-based, human. The following applies: 5 μM, LPS 1 μg/mL, 24 h.
The next data set relates to TNF-α. Briefly: LPS-stimulated TNF-α secretion in PMA-differentiated THP-1 macrophages, ELISA. Format: cell-based, human. The following applies: 5 μM, LPS 1 μg/mL, 24 h. For orientation: ELISA stands for enzyme-linked immunosorbent assay.

By IC50 is commonly meant the midpoint of a concentration-inhibition curve. What is called EC50 is the concentration at which the effect is half-maximal. In the data set on HSV-1 strain KOS, `Nc1nc2c(ncn2COCCO)c(=O)[nH]1` [Acyclovir, acyclovir, reference compound] gave an IC50 of 1.92 ± 0.23 µg/mL (≈ 8.53 µM). This compound returned an EC50 in data set [1] of 1.75 ± 0.33 µg/mL (≈ 7.77 µM). Further, in “in vitro”, the CC50 at 84 h was > 210 µg/mL.
The term MIC denotes the lowest concentration that inhibits growth of the organism. Regarding `C=C1CC[C@H](C(C)(C)O)/C=C/[C@@H](C)CCC1=O` [Compound 1, Litseagermacrane], in [1], the “Selectivity Index CC50/EC50” value is >168.0. This compound also displayed an EC50 in [1] of 1.25 ± 0.2 µg/mL (≈ 5.29 µM). The MIC against S. aureus ATCC 29213 is > 64 µg/mL; in the data set with B. cereus ATCC 11778 it was 64 µg/mL (≈ 271 µM); in the data set on E. coli ATCC 25922, > 64 µg/mL; in the data set with P. aeruginosa ATCC 27853 it was > 64 µg/mL; against C. albicans ATCC 10231, > 64 µg/mL. In the data set with THP-1 cells [2], the “Effect on production of ROS” value is recorded as “no significant antioxidant potential”. Moreover, in “in vitro”, the CC50 at 84 h is > 210 µg/mL.
For `Cc1c(O)c(C=O)c(O)c(C(=O)CC(C)C)c1O` [Compound 2, Grandinol], the “Selectivity Index CC50/IC50” value in the data set on HSV-1 strain KOS is given as >170.7. Moreover, the IC50 with HSV-1 strain KOS stood at 1.23 ± 0.13 µg/mL (≈ 4.88 µM). Further, the MIC in the data set with S. aureus ATCC 29213 was 16 µg/mL (≈ 63.4 µM); with B. cereus ATCC 11778, 16 µg/mL (≈ 63.4 µM); in the data set with E. coli ATCC 25922 it was > 64 µg/mL; with P. aeruginosa ATCC 27853, > 64 µg/mL; in the data set with C. albicans ATCC 10231, > 64 µg/mL. The “Effect on production of ROS” value with THP-1 cells [2] is “significantly increased the production of ROS”. The “MIC range against both Gram-positive strains” value in data set [3] was 8 to 32 µg/mL. For the same compound, in the data set “in vitro”, the CC50 at 84 h was > 210 µg/mL.
With `CCC(C)C(=O)c1c(O)cc(OC)c(C)c1O` (centres unmarked) [Compound 3, Pulverulentone B], the MIC is 32 µg/mL (≈ 134 µM) in the data set on S. aureus ATCC 29213; 8 µg/mL (≈ 33.6 µM) against B. cereus ATCC 11778; > 32 µg/mL in the data set with E. coli ATCC 25922; > 32 µg/mL in the data set on P. aeruginosa ATCC 27853; > 32 µg/mL in the data set on C. albicans ATCC 10231. Moreover, the “Effect on production of ROS” value with THP-1 cells [2] is listed as “no significant antioxidant potential”. Moreover, in data set [3], the “MIC range against both Gram-positive strains” value is 8 to 32 µg/mL.
`C=C(C)C1CCC(=C)C2(O)CCC3(C)C(CC(C)C)c4c(O)c(C=O)c(O)c(C=O)c4OC3C12` (centres unmarked) [Compound 4, Eucalyptal A]: the MIC is > 128 µg/mL in the data set with S. aureus ATCC 29213; 32 µg/mL (≈ 68.3 µM) with B. cereus ATCC 11778; > 128 µg/mL against E. coli ATCC 25922; > 128 µg/mL against P. aeruginosa ATCC 27853; > 128 µg/mL in the data set on C. albicans ATCC 10231. Moreover, the IC50 with THP-1 cells [4] was 1200 nM; in data set [5], 1700 nM.
On to `Cc1cc(=O)c2c(O)cc(O[C@@H]3O[C@H](COC(=O)C4=CC[C@H](C(C)(C)O)CC4)[C@@H](O)[C@H](O)[C@H]3O)cc2o1` [Compound 5, Cypellocarpin C], for which, in data set [1], the “Selectivity Index CC50/EC50” value was >287.7. In data set [1], this compound yielded an EC50 of 0.73 ± 0.11 µg/mL (≈ 1.4 µM). Moreover, the MIC with S. aureus ATCC 29213, against B. cereus ATCC 11778, against E. coli ATCC 25922, against P. aeruginosa ATCC 27853 and in the data set on C. albicans ATCC 10231 was > 128 µg/mL in each case. For the same compound, the CC50 at 84 h in “in vitro” was > 210 µg/mL.
As for `COc1c(C)c(O)c2c(=O)cc(-c3ccc(O)cc3)oc2c1C` [Compound 6, Sideroxylin], the “Selectivity Index CC50/IC50” value in the data set with HSV-1 strain KOS is >145.8. In addition, the 50% inhibitory concentration (IC50) in the data set on HSV-1 strain KOS worked out at 1.44 ± 0.14 µg/mL (≈ 4.61 µM). Besides, the MIC was > 64 µg/mL against S. aureus ATCC 29213; 64 µg/mL (≈ 205 µM) in the data set with B. cereus ATCC 11778; > 64 µg/mL against E. coli ATCC 25922; > 64 µg/mL against P. aeruginosa ATCC 27853; > 64 µg/mL with C. albicans ATCC 10231. Besides, in the data set with NF-κB/AP-1, the “Effect on NF-κB/AP-1 activity” value is “enhance it”. Besides, the CC50 at 84 h in “in vitro” was > 210 µg/mL.
Take `COc1cc2oc(-c3ccc(O)cc3)cc(=O)c2c(O)c1C` [Compound 7, 8-Demethylsideroxylin]: the MIC with S. aureus ATCC 29213 was > 128 µg/mL; with B. cereus ATCC 11778 it was 128 µg/mL (≈ 429 µM); against E. coli ATCC 25922, > 128 µg/mL; against P. aeruginosa ATCC 27853, > 128 µg/mL; in the data set with C. albicans ATCC 10231, > 128 µg/mL. Further, in the data set with NF-κB/AP-1, the “Effect on NF-κB/AP-1 activity” value was “enhance it”.
Regarding `COc1ccc(-c2cc(=O)c3c(O)c(C)c(OC)c(C)c3o2)cc1` [Compound 8, Eucalyptin], the MIC against S. aureus ATCC 29213, with B. cereus ATCC 11778, in the data set on E. coli ATCC 25922, in the data set with P. aeruginosa ATCC 27853 and in the data set on C. albicans ATCC 10231 was > 64 µg/mL each time. In addition, the “Effect on LPS-stimulated secretion of IL-1β” value in the data set with IL-1β was “increased the secretion of the IL-1β”. Moreover, in the data set with TNF-α, the “Effect on LPS-stimulated secretion of TNF-α” value is “Neither compound 8 nor 12 showed any influence on the secretion of TNF-α”.
In the case of `COc1ccc(-c2cc(=O)c3c(O)c(C)c(OC)cc3o2)cc1` [Compound 9, 8-Demethyleucalyptin], the MIC with S. aureus ATCC 29213, against B. cereus ATCC 11778, in the data set on E. coli ATCC 25922, against P. aeruginosa ATCC 27853 and against C. albicans ATCC 10231 was > 64 µg/mL throughout. In addition, the “Effect on NF-κB/AP-1 activity” value in the data set on NF-κB/AP-1 was “reduce the activation of NF-κB/AP-1”.
Consider `c1cc2c(cc1[C@H]1OC[C@H]3[C@@H]1CO[C@@H]3c1ccc3c(c1)OCO3)OCO2` [Compound 10, Sesamin], for which the MIC against S. aureus ATCC 29213, with B. cereus ATCC 11778, against E. coli ATCC 25922, in the data set on P. aeruginosa ATCC 27853 and against C. albicans ATCC 10231 was > 32 µg/mL throughout.
As to `C[C@H]1[C@H](C)CC[C@]2(C(=O)O)CC[C@]3(C)C(=CC[C@@H]4[C@@]5(C)CC[C@H](O)C(C)(C)[C@@H]5CC[C@]43C)[C@H]12` [Compound 11, Ursolic acid], the MIC with S. aureus ATCC 29213 was 128 µg/mL (≈ 280 µM); in the data set with B. cereus ATCC 11778, 32 µg/mL (≈ 70.1 µM); in the data set with E. coli ATCC 25922, > 128 µg/mL; in the data set on P. aeruginosa ATCC 27853 it was > 128 µg/mL; in the data set on C. albicans ATCC 10231, > 128 µg/mL.
Turning to `COc1cc(/C=C/C(=O)O[C@H]2CC[C@]3(C)[C@H]4C=C[C@]56OC(=O)[C@@]7(CC[C@@H](C)[C@H](C)[C@H]75)CC[C@@]6(C)[C@]4(C)CC[C@H]3C2(C)C)ccc1O` [Compound 12, Tereticornate A], the “Selectivity Index CC50/IC50” value in the data set on HSV-1 strain KOS is on record as >218.8. The compound also yielded an IC50 in the data set with HSV-1 strain KOS of 0.96 ± 0.12 µg/mL (≈ 1.52 µM). Besides, the MIC against S. aureus ATCC 29213, against B. cereus ATCC 11778, against E. coli ATCC 25922, against P. aeruginosa ATCC 27853 and in the data set with C. albicans ATCC 10231 was > 32 µg/mL in each case. In addition, in the data set on NF-κB/AP-1, the “Effect on NF-κB/AP-1 activity” value is given as “statistically significant inhibitory potential, stronger than that of prednisone”. Further, in the data set on IL-1β, the “Effect on LPS-stimulated secretion of IL-1β” value was “attenuates the LPS-stimulated secretion of IL-1β”. Besides, the “Effect on LPS-stimulated secretion of TNF-α” value in the data set with TNF-α was “Neither compound 8 nor 12 showed any influence on the secretion of TNF-α”. Further, in “in vitro”, the CC50 at 84 h is > 210 µg/mL.
Regarding `CN(C)[C@@H]1C(O)=C(C(N)=O)C(=O)[C@@]2(O)C(O)=C3C(=O)c4c(O)cccc4[C@@](C)(O)[C@H]3C[C@@H]12` [tetracycline, reference compound], the MIC was 0.125 µg/mL (≈ 0.281 µM) against S. aureus ATCC 29213, 0.03 µg/mL (≈ 0.0675 µM) against B. cereus ATCC 11778, 1 µg/mL (≈ 2.25 µM) against E. coli ATCC 25922 and 16 µg/mL (≈ 36 µM) against P. aeruginosa ATCC 27853.
With `Clc1ccc(C(Cn2ccnc2)OCc2ccsc2Cl)c(Cl)c1` (centres unmarked) [tioconazole, reference compound], in the data set with C. albicans ATCC 10231, the MIC stood at 4 µg/mL (≈ 10.3 µM).
